Assay: Examination on stability: storage at 40° C. and 75% RH for 1 month, state of sample and composition changes
Type: physicochemical
Experimental: Samples 1-1 to 1-4 as shown below were prepared and stored at 40° C. and […] relative humidity (RH) for 1 month.
Pemafibrate as it was placed in a glass vessel with a lid opened, and labeled as Sample 1-1.
Aminoalkyl methacrylate copolymer E (EUDRAGIT EPO: Evonick Rohm GmbH) as it was placed in a glass vessel with a lid opened, and labeled as Sample 1-2.
Aminoalkyl methacrylate copolymer E (EUDRAGIT EPO: Evonick Rohm GmbH) was mixed with pemafibrate in a ratio of 1 part by mass to 1 part by mass of pemafibrate to obtain a mixture. The mixture was placed in a glass vessel with a lid opened, and labeled as Sample 1-3.
Aminoalkyl methacrylate copolymer E (EUDRAGIT EPO: Evonick Röhm GmbH) was mixed with pemafibrate in a ratio of 1 part by mass to 1 part by mass of pemafibrate to obtain a mixture. The mixture was taken in an amount of 0.25 g into a glass bottle (a bottle No. 2K, manufactured by ISOYA GLASS INDUSTRY) and closed with a lid, and labeled as Sample 1-4.

## CC[C@@H](Oc1cccc(CN(CCCOc2ccc(OC)cc2)c2nc3ccccc3o2)c1)C(=O)O [Sample 1-1, (2R)-2-[3-([1,3-Benzoxazol-2-yl[3-(4-methoxyphenoxy)propyl]amino]methyl)phenoxy]butanoic acid]
1 month, start of storage compared with 1 month
  Change of state / presence or absence of composition changes after storage: maintained the same state
After storage for 1 month, glass vessel with lid opened (1-1 to 1-3) or closed glass bottle (1-4)
  State of mixture, 1 month later: White powder
Start of storage, glass vessel with lid opened (1-1 to 1-3) or closed glass bottle (1-4)
  State of mixture, immediately after the start of storage: White powder

— patent publication US20220000786A1, “PHARMACEUTICAL PREPARATION” (KOWA COMPANY, LTD., priority 2018, published 2022)
